According to patent US5548064A, “Vitamin B12 conjugates with EPO, analogues thereof and pharmaceutical compositions” (Biotech Australia Pty Limited, priority 1993, dated 1996):

B1: GCSF-dithioproplonamido[12-aminododecylamido]-eVB12 (conjugate, UniProt P09919 31-207, looked up)
Granulocyte …: TPLGPASSLPQSFLLKCLEQVRKIQGDGAALQEKLVSECATYKLCHPEELVLLGHSLGIPWAPLSSCPSQALQLAGCLSQLHSGLFLYQGLLQALEGISPELGPTLDTLQLDVADFATTIWQQMEELGMAPALQPTQGAMPAFASAFQRRAGGVLVASHLQSFLEVSYRVLRHLAQP
modifications: disulphide-linked aminododecyl vitamin B12 conjugate
notes: GCSF linked by disulphide at Cys-17 to DTP-aminododecyl-eVB12 (section 1.7)
B2: GCSF-diothloproplonamido12-aminododecyl-suberyl-hexylamido-eVB12 (conjugate, UniProt P09919 31-207, looked up)
Granulocyte …: B1 Granulocyte …
modifications: disulphide-linked dodecylsuberylhexyl vitamin B12 conjugate
notes: GCSF linked by disulphide to DTP-dodecylsuberylhexyl-eVB12 (section 1.9)
B3: GCSF-acylhydrazidyl-eVB12 (conjugate, UniProt P09919 31-207, looked up)
Granulocyte …: B1 Granulocyte …
modifications: hydrazide vitamin B12 conjugate
notes: EDAC-mediated conjugate of hydrazido-eVB12 with carboxyl groups of GCSF (section 1.11)
B4: GCSF-acyl[adipyldihydrazidyl]-eVB12 (conjugate, UniProt P09919 31-207, looked up)
Granulocyte …: B1 Granulocyte …
modifications: adipyl-dihydrazide vitamin B12 conjugate
notes: EDAC-mediated conjugate of adipylhydrazido-eVB12 with GCSF (section 1.12)

These molecules were tested against intrinsic factor (IF) (Homo sapiens, UniProt P27352) (assay: Relative intrinsic factor (IF) affinity of eVB12 analogues and complexes). Conditions: % of native eVB12.
Format: binding
Description: IF Affinity is expressed as a percentage of the affinity of the eVB12 derivative relative to native, unmodified VB12.

Sequence of intrinsic factor (IF) (P27352 19-417, species assumed): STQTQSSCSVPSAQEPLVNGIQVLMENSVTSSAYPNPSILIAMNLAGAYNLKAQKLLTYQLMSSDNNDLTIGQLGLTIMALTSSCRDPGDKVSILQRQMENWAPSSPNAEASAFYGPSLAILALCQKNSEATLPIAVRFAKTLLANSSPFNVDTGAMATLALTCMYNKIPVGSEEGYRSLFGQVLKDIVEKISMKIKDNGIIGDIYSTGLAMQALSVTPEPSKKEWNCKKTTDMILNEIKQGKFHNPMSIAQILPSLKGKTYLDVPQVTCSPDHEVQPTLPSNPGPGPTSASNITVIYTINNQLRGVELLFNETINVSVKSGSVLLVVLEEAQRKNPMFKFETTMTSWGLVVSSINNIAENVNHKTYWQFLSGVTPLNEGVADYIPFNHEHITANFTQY

Molecule	IF Affinity
B1	2-3%

Same assay, conditions: percentage of the affinity of the eVB12 derivative relative to native, unmodified VB12

Molecule	IF Affinity [%]
2-aminoethylamido-eVB12	48
6-aminohexylamido-eVB12	91
12-aminododecyl-suberyl-hexylamido-eVB12	82
12-aminododecylamido-eVB12	74
EPO-acyl[adipyldlhydrazidyl]-eVB12	11
EPO-acylhydrazidyl-eVB12	6
adipyldihydrazidyl-eVB12	44
dithiopropionamido[6-aminohexylamido]-eVB12	7
dithioproplonamido[6-aminohexylamido]-eVB12	11
dithlopropionamido[2-aminoethylamido]-eVB12	6
eVB12 carboxylate	35
hydrazidyl-eVB12	100
B1	3
B2	28
B3	10
B4	7
